“Also recorded” adds a separate entry of the source.
What was measured:
[1] = target: T1, HIOMT2 (OMT2) O-methyltransferase (Humulus lupulus, UniProt B0ZB56); assay: 14C-SAM methylation enzyme assay with recombinant HIOMT2 (OMT2) insect cell lysate; type: biochemical; conditions: recombinant enzyme from Sf9 insect cell lysate, 14C-SAM methyl donor, ethyl acetate extract, scintillation counting
T1 construct: The open reading frame of each enzyme was cloned into the baculovirus expression vector pFastBacHT (Invitrogen); 6xHis with TEV site, from the pFastBacHT vector (own knowledge); made in house; host or cells: Spodoptera frugiperda (Sf9) insect cells, baculovirus; crude cell lysate
T1 sequence (B0ZB56 1-360): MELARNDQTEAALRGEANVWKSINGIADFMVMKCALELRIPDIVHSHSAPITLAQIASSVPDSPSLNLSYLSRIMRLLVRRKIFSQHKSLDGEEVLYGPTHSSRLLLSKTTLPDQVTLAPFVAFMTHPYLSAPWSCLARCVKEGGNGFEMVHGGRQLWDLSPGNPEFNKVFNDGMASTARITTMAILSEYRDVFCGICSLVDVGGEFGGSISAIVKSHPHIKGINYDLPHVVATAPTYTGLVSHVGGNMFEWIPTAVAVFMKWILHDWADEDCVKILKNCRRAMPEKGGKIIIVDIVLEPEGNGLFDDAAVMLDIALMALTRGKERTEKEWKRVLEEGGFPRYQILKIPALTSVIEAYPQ
Excerpt: (§1) The open reading frame of each enzyme was cloned into the baculovirus expression vector pFastBacHT (Invitrogen) and the resulting bacmid generated using the Bac-to-Bac system (Invitrogen). The bacmid was used to transfect Spodoptera frugiperda (Sf9) insect cells. After amplification of the baculovirus through several passages, insect cell monolayers were infected, cultivated for 2-4 days and then centrifuged to separate cells from culture media. Cell pellets were lysed and aliquots used directly in enzyme assay containing ^14C—S-adenosyl methionine (^14C-SAM) as a methyl donor and various phenolic and phenylpropanoid natural products as substrates. Methylation activity was measured by the extraction of the enzyme reaction with ethyl acetate and its analysis by scintillation counting. In this assay, ^14C-methylation of one of the proffered substrates is indicated by the presence of radioactivity in the ethyl acetate extract.

[2] = target: T2, HIOMT1 (OMT1) O-methyltransferase (Humulus lupulus, UniProt B0ZB55, L311X); assay: 14C-SAM methylation enzyme assay with recombinant HIOMT1 (OMT1) insect cell lysate; type: biochemical; conditions: for methylation of substrate by OMT1: recombinant enzyme from Sf9 insect cell lysate, 14C-SAM methyl donor, ethyl acetate extract, scintillation counting
T2 construct: The open reading frame of each enzyme was cloned into the baculovirus expression vector pFastBacHT (Invitrogen); 6xHis with TEV site, from the pFastBacHT vector (own knowledge); made in house; host or cells: Spodoptera frugiperda (Sf9) insect cells, baculovirus; crude cell lysate
Description: FIG. 3. Enzymatic activity of HIOMT1 showing that this enzyme methylates desmethylxanthohumol to produce xanthohumol. […] Recombinant HIOMT1 was expressed in insect cells and crude cell lysate used for enzymatic assay. (A) Radio-HPLC analysis of reaction products from empty vector control lysate incubated with ^14C-SAM and desmethylxanthohumol. (B) Radio-HPLC analysis of reaction products from HIOMT1 lysate incubated with ^14C-SAM. (C) Radio-HPLC analysis of reaction products HIOMT1 lysate incubated with ^14C-SAM and desmethylxanthohumol showing that xanthohumol is formed (D) Reversed-phase HPLC analysis of authentic xanthohumol.
as §1

Row | Structure (SMILES) | methylation of substrate by OMT2 [1] | methylation by HIOMT1, reaction product by radio-HPLC (FIG. 3) ([2]; crude insect cell lysate, 14C-SAM, radio-HPLC analysis, product xanthohumol) | methylation of substrate by OMT1 [2]
1 | O=C(/C=C/c1ccc(O)cc1)c1ccccc1O [2′,4-dihydroxychalcone] | methylate | – | –
2 | O=C(/C=C/c1ccc(O)c(O)c1)c1ccc(O)cc1O [butein] | methylate | – | –
3 | Oc1ccccc1O [catechol] | methylate | – | –
4 | O=C(/C=C/c1ccc(O)cc1)c1c(O)cc(O)cc1O [chalconaringenin] | methylate | – | –
5 | CC(C)=CCc1c(O)cc(O)c(C(=O)/C=C/c2ccc(O)cc2)c1O [desmethylxanthohumol] | capable of using desmethylxanthohumol as a substrate; also recorded: methylate | methylates desmethylxanthohumol to form xanthohumol | capable of using desmethylxanthohumol as a substrate; also recorded: methylate
6 | C=CCc1ccc(O)c(OC)c1 [eugenol] | methylate | – | –
7 | O=c1c(-c2ccc(O)cc2)coc2cc(O)cc(O)c12 [genistein] | methylate | – | –
8 | COc1ccccc1O [guaiacol] | methylate | – | –
9 | O=C(/C=C/c1ccc(O)cc1)c1ccc(O)cc1O [isoliquiritigenin] | methylate | – | –
10 | Cc1cc(O)cc(O)c1 [orcinol] | methylate | – | –
11 | Oc1cccc(O)c1 [resorcinol] | methylate | – | –
12 | Oc1ccc(C=Cc2cc(O)cc(O)c2)cc1 [resveratrol] | methylate | – | –
13 | COc1cc(O)c(C(=O)/C=C/c2ccc(O)cc2)c(O)c1CC=C(C)C [xanthogalenol] | – | – | methylate
14 | COc1cc(O)c(CC=C(C)C)c(O)c1C(=O)C=Cc1ccc(O)cc1 [xanthohumol, 1-[2,4-dihydroxy-6-methoxy-3-(3-methylbut-2-enyl)phenyl]-3-(4-hydroxyphenyl)-prop-2-en-1-one] | methylate | – | –

— US7723088B2, “DNA sequences involved in prenylflavonoid biosynthesis in hops and their use in modifying prenylflavonoid production in plants” (priority 2005, dated 2010)
